In patent publication US20090011424A1, “Cancer-suppressing agents” (Tokyo Medical and Dental University, priority 2005, published 2009):

Tested on: NR1I2 gene
Experiment: RT-PCR of NR1I2 messenger RNA in 8 neuroblastoma cell lines cultured with 5-aza-dCyd
Type: cell-based, human
Conditions: 8 neuroblastoma cell lines lacking NR1I2 mRNA; 1 μM for 5 days
From the text: Cell lines used were human-derived neuroblastoma cells SK-N-KS, SK-N-AS, SK-N-SH, SK-N-DZ, SH-SY5Y, MP-N-TS, MP-N-MS, KP-N-RT, KP-N-SIFA, KP-N-SILA, KP-N-TK, KP-N-YS, SMS-KCN, SMS-KAN, SJ-N-CG, NB-1, CHP134, IMR32, and GOTO (Saito-Ohara F, et al. Cancer Res., 63, 1876, 2003), which were derived from […] surgically excised samples. In addition, in order to obtain a material subjected to inhibition of DNA methylation, 5-aza-deoxycytidine (5-aza-dCyd) serving a DNA methyltransferase inhibitor was added to each cell at a concentration of 1 μM for 5 days during culture.
Under general culture conditions, 8 neuroblastoma cell lines lacking the expression of messenger RNA of NR1I2 gene were cultured with the addition of 5-aza-deoxycytidine (5-aza-dCyd) serving as a DNA methyltransferase inhibitor at a concentration of 1 μM for 5 days. The expression levels of messenger RNA of NR1I2 gene in the cells were compared with each other by RT-PCR (FIG. 4). As a control for the expression level obtained by RT-PCR, GAPDH was used.

## Nc1ncn([C@H]2C[C@H](O)[C@@H](CO)O2)c(=O)n1 [5-aza-dCyd, 5-aza-deoxycytidine]
  expression of messenger RNA of NR1I2 gene: expression of messenger RNA of NR1I2 genes was observed
